Data on 21 molecules can be found in ChEMBL document CHEMBL4673333, “Bioactive Limonoids and Triterpenoids from the Fruits of Melia azedarach” (J Nat Prod, 2020).

As usually defined, the IC50 is the point on the concentration scale where inhibition reaches its midpoint.

Calls of active or inactive are those of the source. The rule behind the calls is not given here.

What all share (type): functional, cell-based
The test system of one assay is Bel-7402. Put plainly: Cytotoxicity against human Bel-7402 cells assessed as reduction in cell viability by CCK8 assay.
The next assay relates to HT-29. Kind of assay: Cytotoxicity against human HT-29 cells assessed as reduction in cell viability by CCK8 assay. In general terms: Tetrazolium dyes change colour on reduction, which living cells bring about.
The test system of the next assay is U-251. Put plainly: Cytotoxicity against human U-251 cells assessed as reduction in cell viability by CCK8 assay.
The test system of the next assay is A549. Put plainly: Cytotoxicity against human A549 cells assessed as reduction in cell viability by CCK8 assay.
The subject of the next assay is HCT-116. Put plainly: Cytotoxicity against human HCT-116 cells assessed as reduction in cell viability by CCK8 assay.

Take `COC(=O)C[C@H]1[C@]2(C)C3=C(C)[C@H](c4ccoc4)C[C@H]3O[C@@H]2[C@@H]2OC[C@]3(C)[C@H](OC(=O)/C=C/c4ccccc4)C[C@H](OC(=O)c4ccccc4)[C@@]1(C)[C@@H]23`: the result with Bel-7402, in the assay with HT-29, with U-251, in the assay on A549 and with HCT-116 was inactive.

For the molecule `C/C=C(\C)C(=O)O[C@@H]1[C@@H]2OC[C@]3(C)[C@H](OC(C)=O)C[C@H](OC(C)=O)[C@@](C)([C@@H]23)[C@@H](CC(=O)OC)[C@]1(C)C1=C(C)[C@H](c2ccoc2)C[C@H]1OC`, the outcome with Bel-7402, in the assay on HT-29, in the assay with U-251, in the assay on A549 and with HCT-116 was inactive.

Regarding `COC(=O)C[C@H]1[C@](C)(C2=C(C)[C@H](c3ccoc3)C[C@@H]2OC(C)=O)[C@H](OC(=O)c2ccccc2)[C@@H]2OC[C@]3(C)[C@H](OC(C)=O)C[C@H](OC(C)=O)[C@@]1(C)[C@@H]23`, the result with Bel-7402, in the assay on HT-29, with U-251, in the assay on A549 and with HCT-116 was inactive.

For `C/C=C(\C)C(=O)O[C@H]1C[C@@H](O)[C@@](C)(C=O)[C@@H]2[C@@H](OC(C)=O)[C@H]3O[C@@H]4C[C@@H](c5ccoc5)C(C)=C4[C@@]3(C)[C@H](CC(=O)OC)[C@@]12C`, the outcome in the assay on Bel-7402, in the assay with HT-29, in the assay with U-251, in the assay with A549 and in the assay with HCT-116 was inactive.

With `CC(C)=CCC[C@@H](C(=O)O)[C@@H]1[C@@H](O)C[C@]2(C)C3=CC[C@H]4C(C)(C)[C@@H](O)CC[C@]4(C)[C@H]3C[C@@H](O)[C@@]12C`, the result in the assay with Bel-7402, in the assay on HT-29, in the assay with U-251, with A549 and with HCT-116 was inactive.

For the molecule `COC(=O)C[C@H]1[C@]2(C)C3=C(C)[C@H](c4ccoc4)C[C@H]3O[C@@H]2[C@@H]2OC[C@]3(C)[C@H](OC(=O)c4ccccc4)C[C@H](OC(=O)/C=C/c4ccccc4)[C@@]1(C)[C@@H]23`, the outcome in the assay on Bel-7402, in the assay with HT-29, in the assay with U-251, with A549 and in the assay with HCT-116 was inactive.

For `C/C=C(\C)C(=O)O[C@@H]1[C@@H]2OC[C@]3(C)[C@H](OC(C)=O)C[C@H](OC(C)=O)[C@@](C)([C@@H]23)[C@H]2C[C@H](O)O[C@H]3C[C@@H](c4ccoc4)C(C)=C3[C@]12C`, the result in the assay with Bel-7402, in the assay with HT-29, in the assay on U-251, in the assay on A549 and with HCT-116 was inactive.

As for `CC(=O)O[C@H](C(=O)C=C(C)C)[C@H](C)[C@@H]1CC[C@]2(C)C3=CC[C@H]4C(C)(C)C(=O)CC[C@]4(C)[C@H]3C[C@@H](O)[C@@]12C`, the outcome in the assay with Bel-7402, in the assay with HT-29, in the assay with U-251 and in the assay on A549 was inactive. Moreover, the IC50 with HCT-116 stood at 5.9 µM.

In the case of `COC(=O)C[C@H]1[C@]2(C)C3=C(C)[C@H](c4ccoc4)C[C@H]3O[C@@H]2[C@@H]2OC[C@]3(C)[C@H](OC(=O)c4ccccc4)C[C@H](OC(=O)c4ccccc4)[C@@]1(C)[C@@H]23`, the outcome in the assay with Bel-7402, in the assay with HT-29, with U-251 and in the assay with A549 was inactive. For the same molecule, the IC50 in the assay with HCT-116 is 0.3 µM.

On to `C=C(C)C(=O)O[C@@H]1[C@@H]2OC[C@]3(C)[C@H](OC(C)=O)C[C@H](OC(C)=O)[C@@](C)([C@@H]23)[C@@H](CC(=O)OC)[C@]1(C)C1=C(C)[C@H](c2ccoc2)C[C@@H]1OC`, for which the outcome with Bel-7402, in the assay on HT-29, in the assay on U-251, in the assay on A549 and in the assay with HCT-116 was inactive.

Turning to `COC(=O)C[C@H]1[C@]2(C)C3=C(C)[C@H](c4ccoc4)C[C@H]3O[C@@H]2[C@H](OC(C)=O)[C@H]2[C@](C)(C=O)[C@H](O)C[C@H](OC(=O)c3ccccc3)[C@@]21C`, the outcome in the assay on Bel-7402, in the assay on HT-29, in the assay on U-251, in the assay on A549 and with HCT-116 was inactive.

Regarding `CO[C@@H]1O[C@@H]([C@H](O)C(C)(C)O)C[C@H]1[C@@H]1CC[C@]2(C)C3=CC[C@H]4C(C)(C)[C@@H](O)CC[C@]4(C)[C@H]3CC[C@@]12C`, the outcome in the assay on Bel-7402, in the assay with HT-29, in the assay on U-251, in the assay with A549 and in the assay with HCT-116 was inactive.

For `COC(=O)C[C@H]1[C@](C)(C2=C(C)[C@H](c3ccoc3)C[C@H]2OC)[C@H](OC(=O)c2ccccc2)[C@@H]2OC[C@]3(C)[C@H](OC(C)=O)C[C@H](OC(C)=O)[C@@]1(C)[C@@H]23`, the outcome with Bel-7402, in the assay with HT-29, in the assay on U-251, with A549 and with HCT-116 was inactive.

For the molecule `CO[C@H]1O[C@@H]([C@H](O)C(C)(C)O)C[C@H]1[C@@H]1CC[C@]2(C)C3=CC[C@H]4C(C)(C)[C@@H](O)CC[C@]4(C)[C@H]3CC[C@@]12C`, the outcome in the assay with Bel-7402, in the assay with HT-29, in the assay with U-251, in the assay on A549 and in the assay with HCT-116 was inactive.

Turning to `C/C=C(\C)C(=O)O[C@@H]1[C@@H]2OC[C@]3(C)[C@H](OC(C)=O)C[C@H](OC(C)=O)[C@@](C)([C@@H]23)[C@@H](CC(=O)OC)[C@]1(C)C1=C(C)[C@H](c2ccoc2)C[C@@H]1OC`, the outcome in the assay on Bel-7402, with HT-29, with U-251, in the assay with A549 and in the assay with HCT-116 was inactive.

Turning to `C/C=C(\C)C(=O)O[C@H]1C[C@@H](OC(=O)c2ccccc2)[C@@]2(C)CO[C@H]3[C@H]4O[C@@H]5C[C@@H](c6ccoc6)C(C)=C5[C@@]4(C)[C@H](CC(=O)OC)[C@]1(C)[C@@H]32`, the result with Bel-7402, in the assay with HT-29, in the assay on U-251, with A549 and in the assay on HCT-116 was inactive.

Take `CC(C)=CCC[C@H]1C(=O)O[C@H]2C[C@]3(C)C4=CC(=O)[C@H]5C(C)(C)[C@@H](O)CC[C@]5(C)[C@H]4CC[C@@]3(C)[C@@H]21`: the outcome in the assay on Bel-7402, in the assay with HT-29, in the assay with U-251, with A549 and in the assay with HCT-116 was inactive.

Regarding `C/C=C(\C)C(=O)O[C@@H]1C[C@H](OC(=O)/C=C/c2ccccc2)[C@@]2(C)[C@H]3[C@@H](OC[C@]13C)[C@H]1O[C@@H]3C[C@@H](c4ccoc4)C(C)=C3[C@@]1(C)[C@@H]2CC(=O)OC`, the outcome with Bel-7402, in the assay with HT-29, in the assay with U-251, in the assay on A549 and with HCT-116 was inactive.

For `CC(=O)O[C@H]1[C@@H](OC(=O)c2ccccc2)[C@@]2(C)C3=CC[C@@H](c4ccoc4)[C@]3(C)[C@@H](OC(C)=O)C[C@@H]2[C@@]2(C)[C@@H](O)C[C@@H](OC(C)=O)[C@](C)(C=O)[C@H]12`, the result with Bel-7402, with HT-29, in the assay on U-251, in the assay with A549 and in the assay on HCT-116 was inactive.

For `COC(=O)C[C@H]1[C@](C)(C2=C(C)[C@H](c3ccoc3)C[C@@H]2OC)[C@H](OC(=O)c2ccccc2)[C@@H]2OC[C@]3(C)[C@H](OC(C)=O)C[C@H](OC(C)=O)[C@@]1(C)[C@@H]23`, the result in the assay with Bel-7402, with HT-29, with U-251, with A549 and in the assay on HCT-116 was inactive.

Consider `CC(=O)O[C@H]1C[C@@H](OC(C)=O)[C@@]2(C)CO[C@H]3[C@@H](OC(=O)c4ccccc4)[C@@]4(C)C5=C(C)[C@H](c6ccoc6)C[C@@H]5O[C@@H](O)C[C@@H]4[C@]1(C)[C@@H]32`, for which the outcome with Bel-7402, in the assay on HT-29, with U-251, in the assay with A549 and in the assay with HCT-116 was inactive.
